Reference: paper PMC10531319, “Hemostatically Active Proteinase Produced by Aspergillus ochraceus: Key Specific Properties and Effect on Target Proteins” (International Journal of Molecular Sciences, 2023)
Non-standard residues stand in square brackets, D forms with d. Residues, ends and D or L forms follow the SMILES beside them. *: point of attachment. pNA = O=[N+]([O-])c1ccc(N*)cc1

System: T1, A. ochraceus proteinase
T1 construct: native extracellular enzyme from culture liquid; about 35 kDa, non-glycosylated
Assay: chromogenic assay, pNA release at […] nm, Lineweaver-Burk and Eadie-Hofstee plots
Assay type: biochemical, Aspergillus ochraceus
Conditions: 0.05 M Tris-HCl pH 8.2, 37 °C; substrate 0.25-2.0 mg/mL

## CC(C)C[C@@H](N)C(=O)N[C@@H](CCCCN)C(=O)Nc1ccc([N+](=O)[O-])cc1 [H-D-Leu-Lys-pNA] (H-[dL]-Lys-pNA)
  Km: 3.48 mM
